Consider 30 molecules from patent US20230115274A1, “COMPOUNDS AND COMPOSITIONS FOR TREATING CONDITIONS ASSOCIATED WITH STING ACTIVITY” (IFM Due, Inc., priority 2019, published 2023).

A value given as a limit tells only on which side of the number the result lay.

In the first assay the target is T1, hSTING (Homo sapiens, UniProt Q86WV6, G230A/H232R/R293Q/R71H).
T1 construct: host or cells: THP1-Dual KO-IFNAR2 cells
T1 sequence (Q86WV6 whole entry R71H/G230A/H232R/R293Q): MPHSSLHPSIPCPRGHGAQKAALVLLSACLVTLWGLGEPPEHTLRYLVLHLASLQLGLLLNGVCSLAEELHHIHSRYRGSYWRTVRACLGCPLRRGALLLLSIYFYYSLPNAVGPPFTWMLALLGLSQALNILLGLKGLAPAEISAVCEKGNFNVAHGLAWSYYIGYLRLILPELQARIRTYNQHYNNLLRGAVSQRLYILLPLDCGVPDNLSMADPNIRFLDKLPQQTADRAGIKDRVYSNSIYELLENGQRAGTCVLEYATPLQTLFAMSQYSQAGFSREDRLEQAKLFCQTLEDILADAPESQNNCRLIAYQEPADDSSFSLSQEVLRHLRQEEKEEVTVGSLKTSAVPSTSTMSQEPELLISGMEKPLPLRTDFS
Briefly: STING reporter assay (luciferase) in THP1-Dual KO-IFNAR2 cells stimulated with 2′3′cGAMP. The class given is cell-based. Particulars: 2′3′cGAMP 15 μM, 24 h, class symbols. On the procedure: STING pathway activation by the compounds described herein was measured using THP1-Dual™ cells (KO-IFNAR2).
THP1-Dual™ KO-IFNAR2 Cells (obtained from invivogen) were maintained in RPMI, 10% FCS, 5 ml P/S, 2 mM L-glut, 10 mM Hepes, and 1 mM sodium pyruvate. Compounds were spotted in empty 384 well tissue culture plates (Greiner 781182) by Echo for a final concentration of 0.0017-100 μM. Cells were plated into the TC plates at […], 2×10E6 cells/mL. For activation with STING ligand, 2′3′cGAMP (MW 718.38, obtained from Invivogen), was prepared in Optimem media.
The following solutions were prepared for each 1×384 plate: • Solution A: 2 mL Optimem with one of the following stimuli: • […] • Solution B: 2 mL Optimem with 60 μL Lipofectamine 2000->Incubate 5 min at RT
2 mL of solution A and 2 ml Solution B was mixed and incubated for 20 min at room temperature (RT). 20 uL of transfection solution (A+B) was added on top of the plated cells, with a final 2′3′cGAMP concentration of 15 μM. The plates were then centrifuged immediately at 340 g for 1 minute, after which they were incubated at 37° C., 5% CO2, >98% humidity for 24 h. Luciferase reporter activity was then measured. EC50 values were calculated by using standard methods known in the art.
Luciferase reporter assay: 10 μL of supernatant from the assay was transferred to white 384-plate with flat bottom and squared wells. One pouch of QUANTI-Luc™ Plus was dissolved in 25 mL of water. 100 μL of QLC Stabilizer per 25 mL of QUANTI-Luc™ Plus solution was added. 50 μL of QUANTI-Luc™ Plus/QLC solution per well was then added. Luminescence was measured on a Platereader (e.g., Spectramax I3X (Molecular Devices GF3637001)).
Luciferase reporter activity was then measured. EC50 values were calculated by using standard methods known in the art.
A general note: In a reporter assay the amount or activity of a reporter protein is the signal.
By EC50 is commonly meant the concentration at which the effect is half-maximal. For `COc1ccc2[nH]cc(NC(=O)Nc3cnc(N4CCC(F)(F)CC4)c(C)c3)c2n1` [Compound 173, 1-(6-(4,4-difluoropiperidin-1-yl)-5-methylpyridin-3-yl)-3-(5-methoxy-1H-pyrrolo[3,2-b]pyridin-3-yl)urea], the EC50 fell in the range of 0.2 to 1 µM.
Consider `COc1cnc2[nH]cc(NC(=O)Nc3cnc(C4CCC(F)(F)CC4)c(C)c3)c2c1` [Compound 174, 1-(6-(4,4-difluorocyclohexyl)-5-methylpyridin-3-yl)-3-(5-methoxy-1H-pyrrolo[2,3-b]pyridin-3-yl)urea], for which the concentration for a half-maximal effect (EC50) is 1 to 5 µM.
On the same count and under the same terms, next, `CN(C)c1ccc2[nH]cc(NC(=O)Nc3cnc(N4CCC(F)(F)CC4)c(F)c3)c2n1` [Compound 175, 1-(6-(4,4-difluoropiperidin-1-yl)-5-fluoropyridin-3-yl)-3-(5-(dimethylamino)-1H-pyrrolo[3,2-b]pyridin-3-yl)urea]: 5 to 100 µM.
The molecule `O=C(Nc1ccc(C2CCC(F)(F)CC2)nc1)Nc1c[nH]c2nc(Br)c(F)cc12` [Compound 180, 1-(6-bromo-5-fluoro-1H-pyrrolo[2,3-b]pyridin-3-yl)-3-(6-(4,4-difluorocyclohexyl)pyridin-3-yl)urea] had a half-maximal effective concentration (EC50) of 5 to 100 µM.
With `COc1cnc2[nH]cc(NC(=O)Nc3cnc(N4CCC(F)(F)CC4)c(Cl)c3)c2c1` [Compound 181, 1-(5-chloro-6-(4,4-difluoropiperidin-1-yl)pyridin-3-yl)-3-(5-methoxy-1H-pyrrolo[2,3-b]pyridin-3-yl)urea], the EC50 is 0.2 to 1 µM.
`O=C(Nc1ccc(C2CCC(F)(F)CC2)nc1)Nc1c[nH]c2ncc(F)c(Br)c12` [Compound 182, 1-(4-bromo-5-fluoro-1H-pyrrolo[2,3-b]pyridin-3-yl)-3-(6-(4,4-difluorocyclohexyl)pyridin-3-yl)urea] showed an EC50 of 5 to 100 µM.
Molecule `COc1cnc2[nH]cc(NC(=O)Nc3cnc(N4CCC(F)(F)CC4)c(F)c3)c2c1` [Compound 184, 1-(6-(4,4-difluoropiperidin-1-yl)-5-fluoropyridin-3-yl)-3-(5-methoxy-1H-pyrrolo[2,3-b]pyridin-3-yl)urea] yielded an EC50 of 0.2 to 1 µM.
The same measure, in the same setting: the figure for `O=C(Nc1cc(Cl)c(N2CCC(F)(F)CC2)cn1)Nc1c[nH]c2ncc(F)cc12` [Compound 186, 1-(4-chloro-5-(4,4-difluoropiperidin-1-yl)pyridin-2-yl)-3-(5-fluoro-1H-pyrrolo[2,3-b]pyridin-3-yl)urea] is 0.2 to 1 µM.
In turn, `COc1ccc2[nH]cc(NC(=O)Nc3cnc(N4CCC(F)(F)CC4)c(F)c3)c2n1` [Compound 187, 1-(6-(4,4-difluoropiperidin-1-yl)-5-fluoropyridin-3-yl)-3-(5-methoxy-1H-pyrrolo[3,2-b]pyridin-3-yl)urea] had an EC50 of 0.2 to 1 µM.
`O=C(Nc1cnc(N2CCC(F)(F)CC2)c(Cl)c1)Nc1c[nH]c2cccnc12` [Compound 188, 1-(5-chloro-6-(4,4-difluoropiperidin-1-yl)pyridin-3-yl)-3-(1H-pyrrolo[3,2-b]pyridin-3-yl)urea] had an EC50 of 0.2 to 1 µM.
On the same count and under the same terms, the figure for `O=C(Nc1cnc(N2CCC(F)(F)CC2)c(Cl)c1)Nc1c[nH]c2ncccc12` [Compound 189, 1-(5-chloro-6-(4,4-difluoropiperidin-1-yl)pyridin-3-yl)-3-(1H-pyrrolo[2,3-b]pyridin-3-yl)urea] is 0.2 to 1 µM; for `O=C(Nc1cnc(N2CCC(F)(F)CC2)nc1)Nc1c[nH]c2ncc(F)cc12` [Compound 190, 1-(2-(4,4-difluoropiperidin-1-yl)pyrimidin-5-yl)-3-(5-fluoro-1H-pyrrolo[2,3-b]pyridin-3-yl)urea] it is 0.2 to 1 µM; for `O=C(Nc1cnc(N2CCC(F)(F)CC2)cn1)Nc1c[nH]c2ncc(F)cc12` [Compound 191, 1-(5-(4,4-difluoropiperidin-1-yl)pyrazin-2-yl)-3-(5-fluoro-1H-pyrrolo[2,3-b]pyridin-3-yl)urea] it is 0.2 to 1 µM.
`Cc1cc(NC(=O)Nc2c[nH]c3ncc(F)cc23)cnc1N1CCC2(CC1)CC2` [Compound 192, 1-(5-fluoro-1H-pyrrolo[2,3-b]pyridin-3-yl)-3-(5-methyl-6-(6-azaspiro[2.5]octan-6-yl)pyridin-3-yl)urea]: the concentration giving a half-maximal response (EC50) is 0.04 to 0.2 µM.
Consider `O=C(Nc1ccc(N2CCC(F)(F)CC2)nn1)Nc1c[nH]c2ncc(F)cc12` [Compound 193, 1-(6-(4,4-difluoropiperidin-1-yl)pyridazin-3-yl)-3-(5-fluoro-1H-pyrrolo[2,3-b]pyridin-3-yl)urea], for which the EC50 fell in the range of 5 to 100 µM.
In turn, `COC1CCN(c2ncc(NC(=O)Nc3c[nH]c4ncc(F)cc34)cc2C)CC1` [Compound 194, 1-(5-fluoro-1H-pyrrolo[2,3-b]pyridin-3-yl)-3-(6-(4-methoxypiperidin-1-yl)-5-methylpyridin-3-yl)urea] returned a concentration giving a half-maximal response (EC50) of 1 to 5 µM.
Molecule `N#Cc1cc(NC(=O)Nc2c[nH]c3ncc(F)cc23)ccc1C1CCC(F)(F)CC1` [Compound 195, 1-(3-cyano-4-(4,4-difluorocyclohexyl)phenyl)-3-(5-fluoro-1H-pyrrolo[2,3-b]pyridin-3-yl)urea] returned an EC50 of 0.04 to 0.2 µM.
In the case of `O=C(Nc1cnc(N2CCCCC2)c(Cl)c1)Nc1c[nH]c2ncc(F)cc12` [Compound 196, 1-(5-chloro-6-(piperidin-1-yl)pyridin-3-yl)-3-(5-fluoro-1H-pyrrolo[2,3-b]pyridin-3-yl)urea], the EC50 fell in the range of 0.2 to 1 µM.
Molecule `Cc1cc(NC(=O)Nc2c[nH]c3ncc(F)cc23)cnc1N1CCC(F)(F)CC1` [Compound 198, 1-(6-(4,4-difluoropiperidin-1-yl)-5-methylpyridin-3-yl)-3-(5-fluoro-1H-pyrrolo[2,3-b]pyridin-3-yl)urea] had a concentration giving a half-maximal response (EC50) of 0.04 to 0.2 µM.
The same measure, in the same setting: next, `O=C(Nc1cnc(C2CCC(F)(F)CC2)c(Cl)c1)Nc1c[nH]c2ncc(F)cc12` [Compound 199, 1-(5-chloro-6-(4,4-difluorocyclohexyl)pyridin-3-yl)-3-(5-fluoro-1H-pyrrolo[2,3-b]pyridin-3-yl)urea]: 0.2 to 1 µM; `O=C(Nc1ccc(C2CC(F)(F)C2)c(F)c1)Nc1c[nH]c2ncc(F)cc12` [Compound 201, 1-(4-(3,3-difluorocyclobutyl)-3-fluorophenyl)-3-(5-fluoro-1H-pyrrolo[2,3-b]pyridin-3-yl)urea]: 0.2 to 1 µM; `COc1ccc2[nH]cc(NC(=O)Nc3cnc(N4CCC5(CC4)CC(F)(F)C5)c(Cl)c3)c2n1` [Compound 203, 1-(5-chloro-6-(2,2-difluoro-7-azaspiro[3.5]nonan-7-yl)pyridin-3-yl)-3-(5-methoxy-1H-pyrrolo[3,2-b]pyridin-3-yl)urea]: 0.2 to 1 µM.
Consider `O=C(Nc1ccc(C2CCC(F)(F)CC2)nc1)Nc1c[nH]c2ccc(OCCC(F)(F)F)nc12` [Compound 204, 1-(6-(4,4-difluorocyclohexyl)pyridin-3-yl)-3-(5-(3,3,3-trifluoropropoxy)-1H-pyrrolo[3,2-b]pyridin-3-yl)urea], for which the concentration giving a half-maximal response (EC50) lay within 1 to 5 µM.

Still in this assay, the particulars now being: 2′3′cGAMP 15 μM, 24 h, numeric bounds.
Take `Cc1cc(N2CCC(F)(F)CC2)cnc1NC(=O)Nc1c[nH]c2ncc(F)cc12` [Compound 177, 1-(5-(4,4-difluoropiperidin-1-yl)-3-methylpyridin-2-yl)-3-(5-fluoro-1H-pyrrolo[2,3-b]pyridin-3-yl)urea]: the EC50 was above 30 µM.
In turn, `O=C(Nc1ncc(N2CCC(F)(F)CC2)cc1Cl)Nc1c[nH]c2ncc(F)cc12` [Compound 178, 1-(3-chloro-5-(4,4-difluoropiperidin-1-yl)pyridin-2-yl)-3-(5-fluoro-1H-pyrrolo[2,3-b]pyridin-3-yl)urea] returned an EC50 above 30 µM.
On the same count and under the same terms, next, `Cc1cc(N2CCC(F)(F)CC2)ncc1NC(=O)Nc1c[nH]c2nccc(C)c12` [Compound 179, 1-(6-(4,4-difluoropiperidin-1-yl)-4-methylpyridin-3-yl)-3-(4-methyl-1H-pyrrolo[2,3-b]pyridin-3-yl)urea]: above 30 µM; `O=C(Nc1cnc(N2CCC(F)(F)CC2)cc1Cl)Nc1c[nH]c2ncc(F)cc12` [Compound 183, 1-(4-chloro-6-(4,4-difluoropiperidin-1-yl)pyridin-3-yl)-3-(5-fluoro-1H-pyrrolo[2,3-b]pyridin-3-yl)urea]: above 30 µM.
The molecule `Cc1cc(N2CCC(F)(F)CC2)ncc1NC(=O)Nc1c[nH]c2ncc(F)cc12` [Compound 185, 1-(6-(4,4-difluoropiperidin-1-yl)-4-methylpyridin-3-yl)-3-(5-fluoro-1H-pyrrolo[2,3-b]pyridin-3-yl)urea] came in with an EC50 above 30 µM.
As for `CS(=O)(=O)n1cc(NC(=O)Nc2ccc(C3CCC(F)(F)CC3)nc2)c2cc(F)cnc21` [Compound 197, 1-(6-(4,4-difluorocyclohexyl)pyridin-3-yl)-3-(5-fluoro-1-(methylsulfonyl)-1H-pyrrolo[2,3-b]pyridin-3-yl)urea], the concentration for a half-maximal effect (EC50) is above 30 µM.
On the same count and under the same terms, next, `O=C(Nc1cnn(C2CCC(F)(F)CC2)c1)Nc1c[nH]c2cccnc12` [Compound 205, 1-(1-(4,4-difluorocyclohexyl)-1H-pyrazol-4-yl)-3-(1H-pyrrolo[3,2-b]pyridin-3-yl)urea]: above 30 µM.
